Converted amounts (≈) assume the structure as drawn. The source made the active and inactive calls. The calls are words filed in the database; no cut-off is given here.
Experiments:
[1] = Apparent permeability in MDCK-II cells; type: ADME, cell-based, Canis lupus familiaris; settings: dog
[2] = Clearance in human liver microsomes assessed per mg protein; type: ADME, Microsome; settings: read-out: CLH
[3] = Fraction unbound in human plasma; type: ADME, cell-free
[4] = Dissociation constant, basic pKa of compound; type: physicochemical
[5] = Thermodynamic solubility of the compound at pH 7.4 using crystalline form of sample; type: physicochemical; settings: read-out: Therm_solubility
[6] = Clearance in Sprague-Dawley rat at 1 mg/kg, iv; type: ADME, organism-based; settings: in vivo
[7] = Volume of distribution at steady state in Sprague-Dawley rat at 1 mg/kg, iv; type: ADME, organism-based; settings: in vivo, read-out: Vdss
[8] = AUC infinity in Sprague-Dawley rat at 1 mg/kg, iv; type: ADME, organism-based; design: time infinity, route intravenous, dose 1 mg/kg; settings: in vivo
[9] = Oral bioavailability in Sprague-Dawley rat at 3 mg/kg using crystalline form of sample; type: ADME, organism-based; settings: in vivo
[10] = Oral bioavailability in Sprague-Dawley rat at 30 mg/kg using crystalline form of sample; type: ADME, organism-based; settings: in vivo
[11] = Oral bioavailability in Sprague-Dawley rat at 3 mg/kg using SDD formulation; type: ADME, organism-based; settings: in vivo
[12] = Oral bioavailability in Sprague-Dawley rat at 30 mg/kg using SDD formulation; type: ADME, organism-based; settings: in vivo
[13] = Cmax in Sprague-Dawley rat at 3 mg/kg, po using SDD formulation; type: ADME, organism-based; design: route oral, dose 3 mg/kg; settings: in vivo
[14] = Cmax in Sprague-Dawley rat at 30 mg/kg, po using SDD formulation; type: ADME, organism-based; design: route oral, dose 30 mg/kg; settings: in vivo
[15] = AUC infinity in Sprague-Dawley rat at 3 mg/kg, po using SDD formulation; type: ADME, organism-based; design: time infinity, route oral, dose 3 mg/kg; settings: in vivo
[16] = AUC infinity in Sprague-Dawley rat at 30 mg/kg, po using SDD formulation; type: ADME, organism-based; design: time infinity, route oral, dose 30 mg/kg; settings: in vivo
[17] = Protein binding in rat plasma; type: ADME, cell-free; settings: read-out: PPB (converted)
[18] = Protein binding in human plasma; type: ADME, cell-free
[19] = Renal excretion in rat; type: ADME, Kidney; settings: urine, read-out: Drug excretion
[20] = Bile excretion in rat; type: ADME; settings: read-out: Drug excretion
[21] = Unbound drug level in imiquimod-induced mouse model of skin inflammation at 1 mg/kg, po qd; type: ADME, organism-based; settings: in vivo
[22] = Unbound drug level in imiquimod-induced mouse model of skin inflammation at 3 mg/kg, po qd; type: ADME, organism-based; settings: in vivo
[23] = Unbound drug level in imiquimod-induced mouse model of skin inflammation at 10 mg/kg, po qd; type: ADME, organism-based; settings: in vivo
[24] = Unbound drug level in imiquimod-induced mouse model of skin inflammation at 30 mg/kg, po qd; type: ADME, organism-based; settings: in vivo
[25] = test system: Mus musculus; test: Antiinflammatory activity in imiquimod-induced mouse model of skin inflammation assessed as reduction in IL12 stimulation at 1 mg/kg, po qd; type: functional; design: scale not given: the % may be the effect or the level left
[26] = test system: Mus musculus; test: Antiinflammatory activity in imiquimod-induced mouse model of skin inflammation assessed as reduction in IL12 stimulation at 3 mg/kg, po qd; type: functional; design: scale not given: the % may be the effect or the level left
[27] = test system: Mus musculus; test: Antiinflammatory activity in imiquimod-induced mouse model of skin inflammation assessed as reduction in IL12 stimulation at 10 mg/kg, po qd; type: functional; design: scale not given: the % may be the effect or the level left
[28] = test system: Mus musculus; test: Antiinflammatory activity in imiquimod-induced mouse model of skin inflammation assessed as reduction in IL12 stimulation at 30 mg/kg, po qd; type: functional; design: scale not given: the % may be the effect or the level left
[29] = test system: Mus musculus; test: Antiinflammatory activity in imiquimod-induced mouse model of skin inflammation assessed as reduction in ear swelling at 1 mg/kg, po qd; type: functional, organism-based
[30] = test system: Mus musculus; test: Antiinflammatory activity in imiquimod-induced mouse model of skin inflammation assessed as reduction in ear swelling at 30 mg/kg, po qd relative to control; type: functional; design: scale not given: the % may be the effect or the level left
[31] = test system: Mus musculus; test: Antiinflammatory activity in imiquimod-induced mouse model of skin inflammation assessed as reduction in ear swelling at 10 mg/kg, po qd relative to control; type: functional; design: scale not given: the % may be the effect or the level left
[32] = test system: Mus musculus; test: Antiinflammatory activity in imiquimod-induced mouse model of skin inflammation assessed as reduction in ear swelling at 3 mg/kg, po qd relative to control; type: functional; design: scale not given: the % may be the effect or the level left
[33] = physchem; settings: octanol/water phosphate buffer, pH 7.4
Description: Octanol/water phosphate buffer partition coefficient, log D of compound at pH 7.4 by shake-flask method

Papp [1]: 17 ×10⁻⁶ cm/s | microsomal CLint [2]: < 8 µL/min/mg | Fu [3]: 0.38 | pKa [4]: < 1.7 | solubility thermodynamic [5]: 0.8 µM (≈ 0.307 µg/mL) | clearance [6]: 12 mL/min/kg | Vd [7]: 1.1 L/kg | AUC(0-inf) [8]: 1380 ng·h/mL | bioavailability [9]: 15% | bioavailability [10]: 8% | bioavailability [11]: 58% | bioavailability [12]: 63% | Cmax [13]: 369 ng/mL | Cmax [14]: 2780 ng/mL | AUC(0-inf) [15]: 2390 ng·h/mL | AUC(0-inf) [16]: 25900 ng·h/mL | fraction unbound [17]: 0.82 | PPB [18]: 38% | dose excreted [19]: 1.3% | dose excreted [20]: 0.9% | Drug uptake(free) [21]: 14.5 nM | Drug uptake(free) [22]: 45.7 nM | Drug uptake(free) [23]: 225 nM | Drug uptake(free) [24]: 668 nM | logD [33]: 1.7
Compound: Cn1cc(-c2cn3nccc3c(-c3cnn([C@]4(CC#N)C[C@@H](C#N)C4)c3)n2)cn1 [ROPSACITINIB]
Activity [25]: 51% | Activity [26]: 77% | Activity [27]: 94% | Activity [28]: 98% | Activity [29]: inactive | Activity [30]: 46.2% | Activity [31]: 34% | Activity [32]: 31.3%

Reference: ChEMBL document CHEMBL4673239, “Discovery of Tyrosine Kinase 2 (TYK2) Inhibitor (PF-06826647) for the Treatment of Autoimmune Diseases” (J Med Chem, 2020)
